Experimental data taken from article PMC3546728, “Bacterial Over-Expression and Purification of the 3′phosphoadenosine 5′phosphosulfate (PAPS) Reductase Domain of Human FAD Synthase: Functional Characterization and Homology Modeling” (International Journal of Molecular Sciences, 2012).

Legend:
6-His-Δ1-328-hFADS [1] = molecular target: T1, 6-His-Δ1-328-hFADS (Homo sapiens, UniProt Q8NFF5); experiment: fluorimetric FAD synthesis rate; type: biochemical; conditions: competitive; data not shown
T1 construct: gene FLAD1; C-terminal PAPS reductase domain, residues 329-587; vector pH6EX3; E. coli Rosetta (DE3); theoretical 31499 Da, ~28 kDa on SDS-PAGE

6-His-Δ1-328-hFADS [2] = molecular target: T1, 6-His-Δ1-328-hFADS; experiment: absorbance spectrum of purified holoprotein; HPLC of flavin released by acid; type: binding; conditions: co-purified, tightly bound FAD, 40 mM Hepes/Na, 5 mM β-mercaptoethanol, pH 7.4

T1 sequence (Q8NFF5 329-587, stated change not applied): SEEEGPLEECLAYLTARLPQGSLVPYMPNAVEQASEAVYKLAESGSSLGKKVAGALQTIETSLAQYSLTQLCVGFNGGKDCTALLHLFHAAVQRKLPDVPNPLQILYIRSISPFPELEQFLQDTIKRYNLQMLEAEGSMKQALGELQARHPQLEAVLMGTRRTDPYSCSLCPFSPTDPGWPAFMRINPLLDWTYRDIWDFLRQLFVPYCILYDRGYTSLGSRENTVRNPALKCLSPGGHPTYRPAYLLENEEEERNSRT

Row | Structure (SMILES) | fluorimetric FAD synthesis rate (6-His-Δ1-328-hFADS [1]) | FAD/protein monomer ratio (6-His-Δ1-328-hFADS [2])
1 | Nc1nc2c(ncn2[C@@H]2O[C@H](COP(=O)(O)OP(=O)(O)O)[C@@H](O)[C@H]2O)c(=O)[nH]1 [GDP] | no significant changes were found in competitive inhibition by GDP (data not shown) | –
2 | Cc1cc2nc3c(=O)[nH]c(=O)nc-3n(C[C@H](O)[C@H](O)[C@H](O)COP(=O)(O)OP(=O)(O)OC[C@H]3O[C@@H](n4cnc5c(N)ncnc54)[C@H](O)[C@@H]3O)c2cc1C [FAD] | – | demonstrates that the bound cofactor is FAD with a FAD/protein monomer ratio
